# Reference: paper PMC7984390 (Journal of Clinical Pharmacology, 2020)
# Several values for one entry are separate records, joined by “and”; a condition that tells them apart may be missing. Equal values may be shown once. Entries after “also recorded” stand apart in the source; their conditions may differ.
# What was measured:
# [1] = Phase 1 study: iohexol plasma clearance as marker of GFR; type: in vivo, human; settings: for Iohexol C0, arithmetic mean (CV%) / Iohexol CLsyst, arithmetic mean (CV%): iohexol iv
# Phase 1 study: safety = type: in vivo, human; settings: by treatment period; healthy subjects
# [2] = cited from earlier work
# [3] = Phase 1 study: endogenous markers of renal function; type: in vivo, human
# [4] = treatment metformin + tucatinib, n = 17
# [5] = combination treatment versus metformin alone
# [6] = metformin alone or with tucatinib, n = 17
# [7] = urine 0-24 h, metformin 850 mg oral, alone or with tucatinib, n = 17
compound,measurement,setting,value
CC(=O)N(CC(O)CO)c1c(I)c(C(=O)NCC(O)CO)c(I)c(C(=O)NCC(O)CO)c1I (stereo not drawn) [Iohexol],"Iohexol C0, arithmetic mean (CV%)",[1]; [4],178.5 (21.5) µg/mL
same,"Iohexol CLsyst, arithmetic mean (CV%)",[1]; [4],129.0 (22.0) mL/min
same,"Iohexol C0, arithmetic mean (CV%)","[1]; treatment metformin, n = 17",175.6 (18.0) µg/mL
same,"Iohexol CLsyst, arithmetic mean (CV%)","[1]; treatment metformin, n = 17",129.8 (22.7) mL/min
Cc1cc(Nc2ncnc3ccc(NC4=NC(C)(C)CO4)cc23)ccc1Oc1ccn2ncnc2c1 [Tucatinib],Proportion of subjects who experienced TEAEs,Phase 1 study: safety,33.3%
same,Patients with adverse event of elevated serum creatinine concentration,"[2]; tucatinib arm (with trastuzumab and capecitabine), HER2CLIMB",13.9%
same,Patients with increased creatinine as a laboratory abnormality,"[2]; tucatinib arm, all grade 1 or 2",33%
same,Effect of tucatinib on GFR (iohexol clearance),[1]; tucatinib 300 mg twice daily,unchanged; also recorded: unaffected
same,Effect of tucatinib on cystatin C-based eGFR,[3]; tucatinib 300 mg twice daily,unchanged
same,Effect of tucatinib on metformin Cmax,tucatinib 300 mg twice daily coadministered with metformin 850 mg,no effect
CN(C)C(=N)N=C(N)N [Metformin],Proportion of subjects who experienced TEAEs,Phase 1 study: safety,38.9%
same,"GFR, arithmetic mean (CV%)","[1]; calculated from iohexol plasma clearance, n = 17",94.99 (17.4) mL/min/1.73 m^2
same,"Mean eGFR derived from cystatin C, 12 hours postdose",[3]; [5],97.9 mL/min/1.73 m^2
same,"Mean eGFR derived from cystatin C, premetformin dose",[3]; [5],101.4 mL/min/1.73 m^2
same,Mean CrCl 24 hours postdose,[3]; day 2 (after metformin alone) versus day 9 (in the presence of tucatinib),152.3 mL/min
same,Mean cystatin C concentration prior to metformin dosing,[3]; metformin alone (day 1) versus tucatinib coadministration (day 8),0.846 mg/L
same,Mean cystatin C concentration 12 hours postmetformin dosing,[3]; metformin alone versus metformin and tucatinib,0.881 mg/L
same,Tmax,"human, plasma, oral, 850 mg",1.5 to 4 h
same,Cmax,"human, plasma, po, 850 mg",1300 ng/mL
same,"Metformin CLrenal, arithmetic mean (CV%)","metformin 850 mg oral, alone or with tucatinib 300 mg twice daily, n = 17",30.0 (27.0) L/h
same,"Metformin CL/F, geometric LSM",[6],102.0 L/h
same,"Metformin VzF, geometric LSM",[6],664.7 L
same,"Ae0‐24, amount of metformin excreted unchanged in urine, arithmetic mean (CV%)",[7],242.6 (26.5) mg
same,"Fe0‐24, cumulative fraction of metformin excreted unchanged in urine, arithmetic mean (CV%)",[7],28.54% and 28.5 (26.5) %
